Laboratory results from patent US7803600B2 (priority 2002, dated 2010).

Experiments:
[1] = test system: K562A7 parental leukemia cells; experiment: Cell proliferation assay (MTS/PMS), K562A7 parental; type: cell-based; conditions: Homo sapiens, 96 h, 4-day incubation, mean ± SE of at least two experiments, read-out: Sensitivity to cell killing, IC50
Experimental: (§1) The activity of the compound of formula (I) on P-glycoprotein- or Multidrug Resistant Protein-expressing tumour cell lines and respective parental cells, K562/C1,000+ and K562A7, COR-L23/R and COR-L23, was compared to that of a known substrate for P-glycoprotein/Multidrug Resistant Protein, adriamycin.
(§2) All samples tested were dissolved in DMSO and further dilutions (typically 1:1,000) were made in culture medium, with final DMSO concentrations never exceeding 0.1% (v/v) in cell proliferation assays. MTT [3-(4,5-dimethylthiazol-2-yl)-2,5-diphenyltetrazolium bromide], MTS [3-(4,5-dimethylthiazol-2-yl)-5-(3-carboxymethoxyphenyl)-2-(4-sulfophenyl)-2H-tetrazolium inner salt] and PMS [phenazine methosulfate] were dissolved in phosphate-buffered saline (PBS).
(§3) MTT and MTS are both tetrazolium salts widely used in cell proliferation and toxicity tests. Upon entry in a viable cell, these tetrazolium salts are (bio)reduced to an intensely colored formazan derivative. In case of MTT, the formed formazan is crystalline and needs to be dissolved before colorimetric quantification. MTS needs an intermediate electron acceptor (PMS) for its efficient reduction into a soluble formazan end product and is used for suspension cell lines. […]

K562/C1,000+ cells = experiment: Cell proliferation assay (MTS/PMS), K562/C1,000+ P-glycoprotein overexpressing; type: cell-based, human
Experimental: as §1, §2, §3

COR-L23 cells = experiment: Cell proliferation assay (MTT), COR-L23 parental; type: cell-based; conditions: Homo sapiens, 96 h, 4-day incubation, mean ± SE of at least two experiments, read-out: Sensitivity to cell killing, IC50
Experimental: as §1, §2, §3

COR-L23/R cells = experiment: Cell proliferation assay (MTT), COR-L23/R Multidrug Resistant Protein overexpressing; type: cell-based, human
Experimental: as §1, §2, §3

SMILES: COc1cccc2c1C(=O)c1c(O)c3c(c(O)c1C2=O)C[C@@](O)(C(=O)CO)C[C@@H]3O[C@H]1C[C@H](N)[C@H](O)[C@H](C)O1 [Adriamycin, adriamycin]
- IC50 [1]: 26.8 ± 5.82 nM
- IC50 (K562/C1,000+ cells; Homo sapiens, 96 h, K562/C1,000+ P-glycoprotein overexpressing cells, 4-day incubation, mean ± SE of at least two experiments, read-out: Sensitivity to cell killing, IC50): 7.83 µM
- Resistance to cell killing as compared to parental cell line (K562/C1,000+ cells; K562/C1,000+ versus parental K562A7): 250 fold
- IC50 (COR-L23 cells): 36.6 ± 19.1 nM
- Resistance to cell killing as compared to parental cell line (COR-L23/R cells; COR-L23/R versus parental COR-L23): 20 fold
- IC50 (COR-L23/R cells; Homo sapiens, 96 h, COR-L23/R Multidrug Resistant Protein overexpressing cells, 4-day incubation, mean ± SE of at least two experiments, read-out: Sensitivity to cell killing, IC50): 676 ± 261 nM
